From ChEMBL document CHEMBL1144577, “1,5-Biaryl pyrrole derivatives as EP1 receptor antagonists. Structure-activity relationships of 6-substituted and 5,6-disubstituted benzoic acid derivatives” (Bioorg Med Chem Lett, 2007)

Legend:
[1] = Blood clearance in rat; type: ADME, organism-based
[2] = Volume of distribution at steady state in rat; type: ADME, organism-based; details: in vivo, read-out: Vss
Rattus norvegicus [3] = assay: Reversal of hypersensitivity in po dosed FCA rat model of inflammatory pain; type: functional
Prostacyclin receptor = Prostacyclin receptor (Homo sapiens, UniProt P43119); assay: Inhibition of human recombinant IP receptor expressed in CHO cells […] by calcium mobilisation assay; type: functional, cell-based
[4] = Ratio of drug level in brain to blood in rat FCA model of inflammatory pain at 30 mg/kg, po after 6 hrs; type: ADME, organism-based; design: dose 30 mg/kg, route oral; details: brain and blood
[5] = Ratio of drug level in brain to blood in rat FCA model of inflammatory pain at 30 mg/kg, po after 1 hr; type: ADME, organism-based; design: dose 30 mg/kg, route oral; details: brain and blood
[6] = Drug level in brain of rat FCA model of inflammatory pain at 30 mg/kg, po after 6 hrs; type: ADME, organism-based; design: dose 30 mg/kg, route oral; details: read-out: Drug uptake
[7] = Volume of distribution in rat at 1 mg/kg, iv or 3 mg/kg, po; type: ADME, organism-based; details: in vivo, read-out: Vss
[8] = Drug level in blood of rat FCA model of inflammatory pain at 30 mg/kg, po after 1 hr; type: ADME, organism-based; design: dose 30 mg/kg, route oral; details: read-out: Drug uptake
Thromboxane A2 receptor = target: T1, Thromboxane A2 receptor (Homo sapiens, UniProt P21731); assay: Inhibition of human recombinant TP receptor expressed in CHO cells by calcium mobilisation assay; type: functional, cell-based
T1 sequence (P21731 whole entry): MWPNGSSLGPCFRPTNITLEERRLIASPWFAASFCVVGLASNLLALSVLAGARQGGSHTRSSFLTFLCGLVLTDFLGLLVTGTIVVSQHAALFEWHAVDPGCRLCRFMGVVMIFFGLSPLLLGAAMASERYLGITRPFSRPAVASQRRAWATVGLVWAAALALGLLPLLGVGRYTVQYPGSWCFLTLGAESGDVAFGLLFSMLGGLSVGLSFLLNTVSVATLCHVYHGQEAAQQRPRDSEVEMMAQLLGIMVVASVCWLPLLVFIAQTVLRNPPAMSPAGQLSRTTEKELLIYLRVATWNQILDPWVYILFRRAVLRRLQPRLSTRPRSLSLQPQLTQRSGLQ

[9] = Ratio of drug level in brain to blood in rat FCA model of inflammatory pain at 30 mg/kg, po after 0.25 hrs; type: ADME, organism-based; design: dose 30 mg/kg, route oral; details: brain and blood
[10] = Ratio of drug level in brain to blood in rat FCA model of inflammatory pain at 30 mg/kg, po after 8 hrs; type: ADME, organism-based; design: dose 30 mg/kg, route oral; details: brain and blood
[11] = Drug level in brain of rat FCA model of inflammatory pain at 30 mg/kg, po after 0.25 hrs; type: ADME, organism-based; design: dose 30 mg/kg, route oral; details: read-out: Drug uptake
[12] = target: T2, Prostaglandin E2 receptor EP3 subtype (Homo sapiens, UniProt P43115); assay: Inhibition of human recombinant EP3 receptor expressed in CHO cells by calcium mobilisation assay; type: functional, cell-based
T2 sequence (P43115 whole entry): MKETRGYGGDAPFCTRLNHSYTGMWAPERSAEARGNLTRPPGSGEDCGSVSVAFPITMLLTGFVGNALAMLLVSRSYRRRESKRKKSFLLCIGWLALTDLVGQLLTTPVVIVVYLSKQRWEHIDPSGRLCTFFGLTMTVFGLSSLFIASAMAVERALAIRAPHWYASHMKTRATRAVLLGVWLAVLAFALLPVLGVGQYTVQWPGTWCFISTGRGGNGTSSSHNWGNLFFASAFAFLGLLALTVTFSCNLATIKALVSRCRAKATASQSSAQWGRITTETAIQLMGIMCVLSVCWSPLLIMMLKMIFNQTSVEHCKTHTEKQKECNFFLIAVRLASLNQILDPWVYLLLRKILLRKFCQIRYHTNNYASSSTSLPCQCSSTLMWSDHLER

[13] = Ratio of drug level in brain to blood in rat FCA model of inflammatory pain at 30 mg/kg, po after 24 hrs; type: ADME, organism-based; design: dose 30 mg/kg, route oral; details: brain and blood
[14] = Drug level in blood of rat FCA model of inflammatory pain at 30 mg/kg, po after 2 hrs; type: ADME, organism-based; design: dose 30 mg/kg, route oral; details: read-out: Drug uptake
Rattus norvegicus [15] = assay: Reversal of hypersensitivity in FCA rat model of inflammatory pain at 5 mg/kg, po; type: functional
[16] = Ratio of drug level in brain to blood in rat FCA model of inflammatory pain at 30 mg/kg, po after 4 hrs; type: ADME, organism-based; design: dose 30 mg/kg, route oral; details: brain and blood
Rattus norvegicus [17] = assay: Normalized AUC (0 to t) in rat at 3 mg/kg, po; type: ADME, organism-based; design: dose 3 mg/kg, route oral; details: in vivo
[18] = Drug level in brain of rat FCA model of inflammatory pain at 30 mg/kg, po after 4 hrs; type: ADME, organism-based; design: dose 30 mg/kg, route oral; details: read-out: Drug uptake
[19] = Drug level in blood of rat FCA model of inflammatory pain at 30 mg/kg, po after 8 hrs; type: ADME, organism-based; design: dose 30 mg/kg, route oral; details: read-out: Drug uptake
[20] = Ratio of drug level in brain to blood in rat FCA model of inflammatory pain at 30 mg/kg, po after 2 hrs; type: ADME, organism-based; design: dose 30 mg/kg, route oral; details: brain and blood
[21] = target: T3, Prostaglandin E2 receptor EP1 subtype (Homo sapiens, UniProt P34995); assay: Displacement of [3H]PGE2 from human recombinant EP1 receptor expressed in CHOK1 cell membrane; type: cell membranes, CHO-K1
T3 sequence (P34995 whole entry): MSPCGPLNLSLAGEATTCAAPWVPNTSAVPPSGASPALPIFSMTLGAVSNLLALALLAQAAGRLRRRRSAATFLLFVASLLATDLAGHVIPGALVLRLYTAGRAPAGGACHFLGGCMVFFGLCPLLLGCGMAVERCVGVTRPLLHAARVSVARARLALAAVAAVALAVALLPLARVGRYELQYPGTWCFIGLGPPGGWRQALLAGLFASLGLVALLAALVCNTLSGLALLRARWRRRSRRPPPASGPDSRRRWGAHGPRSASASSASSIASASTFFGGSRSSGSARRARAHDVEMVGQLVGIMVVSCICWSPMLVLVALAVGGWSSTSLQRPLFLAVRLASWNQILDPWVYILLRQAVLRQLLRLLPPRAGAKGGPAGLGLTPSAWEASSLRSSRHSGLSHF

[22] = Intrinsic clearance in monkey liver microsomes; type: ADME, Macaca mulatta, Microsome; details: rhesus monkey
[23] = Drug level in brain of rat FCA model of inflammatory pain at 30 mg/kg, po after 8 hrs; type: ADME, organism-based; design: dose 30 mg/kg, route oral; details: read-out: Drug uptake
[24] = Bioavailability in rat at 3 mg/kg, po; type: ADME, organism-based; details: in vivo
[25] = target: T3, Prostaglandin E2 receptor EP1 subtype; assay: Inhibition of human recombinant EP1 receptor expressed in CHO cells by calcium mobilisation assay; type: functional, cell-based
[26] = target: T4, Prostaglandin E2 receptor EP4 subtype (Homo sapiens, UniProt P35408); assay: Inhibition of human EP4 recombinant receptor expressed in CHO cells by cAMP mobilisation assay; type: functional, cell-based
Liver microsomes = assay: Intrinsic clearance in human liver microsomes; type: ADME, Microsome
[27] = Drug level in blood of rat FCA model of inflammatory pain at 30 mg/kg, po after 6 hrs; type: ADME, organism-based; design: dose 30 mg/kg, route oral; details: read-out: Drug uptake
[28] = Drug level in brain of rat FCA model of inflammatory pain at 30 mg/kg, po after 24 hrs; type: ADME, organism-based; design: dose 30 mg/kg, route oral; details: read-out: Drug uptake
[29] = Drug level in blood of rat FCA model of inflammatory pain at 30 mg/kg, po after 4 hrs; type: ADME, organism-based; design: dose 30 mg/kg, route oral; details: read-out: Drug uptake
[30] = target: T4, Prostaglandin E2 receptor EP4 subtype; assay: Binding affinity to human EP4 receptor expressed in CHO cells; type: cell-based
[31] = Intrinsic clearance in dog liver microsomes; type: ADME, Canis lupus familiaris, Microsome
[32] = Half life in rat at 1 mg/kg, iv or 3 mg/kg, po; type: ADME, organism-based; details: in vivo
[33] = Tmax in rat at 3 mg/kg, po; type: ADME, organism-based; design: dose 3 mg/kg, route oral; details: in vivo
[34] = target: Prostaglandin E2 receptor EP2 subtype (Homo sapiens, UniProt P43116); assay: Inhibition of human recombinant EP2 receptor expressed in CHO cells […] by calcium mobilisation assay; type: functional, cell-based
[35] = Drug level in brain of rat FCA model of inflammatory pain at 30 mg/kg, po after 1 hr; type: ADME, organism-based; design: dose 30 mg/kg, route oral; details: read-out: Drug uptake
[36] = target: Prostaglandin F2-alpha receptor (Homo sapiens, UniProt P43088); assay: Inhibition of human recombinant FP receptor expressed in CHO cells by calcium mobilisation assay; type: functional, cell-based
[37] = Drug level in blood of rat FCA model of inflammatory pain at 30 mg/kg, po after 0.25 hrs; type: ADME, organism-based; design: dose 30 mg/kg, route oral; details: read-out: Drug uptake
[38] = Blood clearance in rat at 1 mg/kg, iv or 3 mg/kg, po; type: ADME, organism-based
[39] = Cmax in rat at 3 mg/kg, po; type: ADME, organism-based; design: dose 3 mg/kg, route oral; details: in vivo
[40] = Drug level in brain of rat FCA model of inflammatory pain at 30 mg/kg, po after 2 hrs; type: ADME, organism-based; design: dose 30 mg/kg, route oral; details: read-out: Drug uptake

T4 sequence (P35408 whole entry): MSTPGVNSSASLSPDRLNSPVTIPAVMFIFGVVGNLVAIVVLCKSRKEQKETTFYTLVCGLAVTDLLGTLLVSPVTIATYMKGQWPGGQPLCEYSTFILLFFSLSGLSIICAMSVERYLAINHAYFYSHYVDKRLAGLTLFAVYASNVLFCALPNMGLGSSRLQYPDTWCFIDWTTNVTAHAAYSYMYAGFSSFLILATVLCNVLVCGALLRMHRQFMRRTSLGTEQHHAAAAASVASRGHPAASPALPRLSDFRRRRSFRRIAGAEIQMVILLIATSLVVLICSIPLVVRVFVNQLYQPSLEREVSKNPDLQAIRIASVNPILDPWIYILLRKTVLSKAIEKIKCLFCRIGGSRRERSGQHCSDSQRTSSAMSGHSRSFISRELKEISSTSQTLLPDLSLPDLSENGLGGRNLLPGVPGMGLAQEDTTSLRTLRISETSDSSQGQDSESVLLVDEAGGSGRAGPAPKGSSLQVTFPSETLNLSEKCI
Prostaglandin F2-alpha receptor, sequence (P43088 whole entry): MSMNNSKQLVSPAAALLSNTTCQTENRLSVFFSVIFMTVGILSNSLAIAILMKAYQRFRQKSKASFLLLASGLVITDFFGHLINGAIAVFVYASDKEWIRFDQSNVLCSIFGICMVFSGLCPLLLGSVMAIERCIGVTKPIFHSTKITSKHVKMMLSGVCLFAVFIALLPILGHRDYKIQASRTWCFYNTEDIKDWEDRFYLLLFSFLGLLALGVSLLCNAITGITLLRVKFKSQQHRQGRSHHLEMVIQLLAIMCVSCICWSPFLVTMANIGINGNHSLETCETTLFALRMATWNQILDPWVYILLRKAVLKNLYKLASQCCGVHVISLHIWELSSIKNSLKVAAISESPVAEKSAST
Prostaglandin E2 receptor EP2 subtype, sequence (P43116 whole entry): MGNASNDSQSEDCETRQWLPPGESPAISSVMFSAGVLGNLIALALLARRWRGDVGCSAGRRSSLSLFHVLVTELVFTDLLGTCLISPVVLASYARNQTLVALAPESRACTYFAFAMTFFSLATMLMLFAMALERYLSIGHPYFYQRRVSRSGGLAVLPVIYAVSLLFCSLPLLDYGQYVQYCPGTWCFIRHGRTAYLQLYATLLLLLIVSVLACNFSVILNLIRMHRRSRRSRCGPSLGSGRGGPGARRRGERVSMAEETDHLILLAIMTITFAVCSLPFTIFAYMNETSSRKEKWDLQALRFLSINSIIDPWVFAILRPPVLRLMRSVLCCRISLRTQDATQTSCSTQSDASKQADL
Prostacyclin receptor, sequence (P43119 whole entry): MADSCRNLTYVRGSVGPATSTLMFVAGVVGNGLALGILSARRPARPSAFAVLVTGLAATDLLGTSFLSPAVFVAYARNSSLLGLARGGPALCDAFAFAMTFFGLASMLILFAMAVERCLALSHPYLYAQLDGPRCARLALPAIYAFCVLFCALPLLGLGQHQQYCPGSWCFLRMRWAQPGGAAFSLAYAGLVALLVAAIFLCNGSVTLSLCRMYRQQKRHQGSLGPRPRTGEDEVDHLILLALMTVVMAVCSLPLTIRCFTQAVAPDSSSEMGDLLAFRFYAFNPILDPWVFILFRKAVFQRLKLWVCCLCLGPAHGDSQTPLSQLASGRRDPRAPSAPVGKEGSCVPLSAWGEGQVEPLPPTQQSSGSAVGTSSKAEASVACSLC

Cc1ccc(-c2cc(Br)ccc2OCc2ccc(F)cc2)n1-c1cccc(C(=O)O)c1
clearance [1]: 42 mL/min/kg
Vd [2]: 0.7 L/kg
ED50 (Rattus norvegicus [3]): 9.2 mg/kg

Cc1ccc(-n2c(C)ccc2-c2cc(Cl)ccc2OCc2ccc(F)cc2)cc1C(=O)O
IC50 (Prostacyclin receptor): > 3160 nM
Kp at 6 h [4]: 0.4
Kp at 1 h [5]: 0.4
concentration at 6 h [6]: 913 nM
Vd [7]: 2.6 L/kg
concentration at 1 h [8]: 10100 nM
IC50 (Thromboxane A2 receptor): 39.8 nM
Ki (Thromboxane A2 receptor): 15.8 nM
Kp at 0.25 h [9]: 0.4
Kp at 8 h [10]: 0.4
concentration at 0.25 h [11]: 2600 nM
Ki [12]: 501 nM
Kp at 24 h [13]: 0.5
concentration at 2 h [14]: 5930 nM
Activity (Rattus norvegicus [15]): 75%
Kp at 4 h [16]: 0.4
AUC/dose (Rattus norvegicus [17]): 18 kg·min/L
concentration at 4 h [18]: 1220 nM
concentration at 8 h [19]: 1600 nM
Kp at 2 h [20]: 0.4
IC50 [21]: 5.01 nM
CL [22]: <= 3.6 ml/min/g
concentration at 8 h [23]: 753 nM
bioavailability [24]: 45%
Ki [25]: 1 nM
Ki [26]: 6310 nM
CL (Liver microsomes): <= 3.6 ml/min/g
concentration at 6 h [27]: 2310 nM
concentration at 24 h [28]: 31 nM
concentration at 4 h [29]: 3560 nM
IC50 [30]: 15800 nM
Ki [30]: 7940 nM
CL [31]: <= 3.6 ml/min/g
half-life [32]: 276 min
Tmax [33]: 30 min
IC50 [34]: > 3160 nM
concentration at 1 h [35]: 3560 nM
IC50 [36]: > 3160 nM
concentration at 0.25 h [37]: 7360 nM
clearance [38]: 22 mL/min/kg
Cmax [39]: 590 nM
concentration at 2 h [40]: 2480 nM
ED50 (Rattus norvegicus [3]): 2.5 mg/kg

Cc1c(N)cc(-n2c(C)ccc2-c2cc(C(F)(F)F)ccc2OCc2ccccc2)cc1C(=O)O
Activity (Rattus norvegicus [15]): 40%
AUC/dose (Rattus norvegicus [17]): 31 kg·min/L
IC50 [21]: 3.98 nM
Tmax [33]: 30 min
Cmax [39]: 910 nM
